Reference: patent US12404249B2, “Heterocyclic derivatives and use thereof” (C&C RESEARCH LABORATORIES, priority 2018, dated 2025)

Experiments:
[1] = system: prostate cancer cell line (LNCap); assay: Cell growth inhibition assay (Celltiter Glo); format: cell-based; conditions: Homo sapiens, LNCap cells, 120 hours incubation
Description: Cancer cell inhibitory effects by the compounds of the Examples were evaluated as follows. The prostate cancer cell line (LNCap) used was cultured under the condition according to the vendor's recommendation. LNCap was dispensed into a 96-well plate at 10,000 cells/well. After incubation under the condition of 37° C. and 5% CO2 for 24 hours, the Example compounds of 50 mM DMSO stock were diluted to various concentrations and treated to the 96-well plate containing cells. After treatment of the Example compounds, LNCap cells were incubated in an incubator (37° C., 5% CO2) for 120 hours. After each incubation time, the 96-well plate was observed under a microscope to record the presence or absence of drug precipitation and specificities, and the 96-well plate was kept at room temperature for 30 minutes. Then, after addition of 20 μL of Celltiter Glo solution, the 96-well plate was well shaken for 30 minutes. The growth inhibitory activity was measured on microLUMA LB96P (BERTHOLD) instrument using Glo-vial protocol. As a negative control, a 96 well-plate in which culture medium was added but cells were not plated was used. As a positive control, a 96 well-plate in which cells were plated and 0.1% DMSO instead of drugs was added was used. The results of growth inhibitory effects of the Example compounds on prostate cancer cell line are represented in Table 2.

[2] = target: T1, STAT3 (Homo sapiens, UniProt P40763); assay: STAT3 activation inhibition assay (reporter gene assay, LNcaP stable cell line, IL-6 stimulated); format: cell-based; conditions: LNcaP stable cell line [plasmid STAT3-TA-luc], IL-6 10 ng/mL, 48 hours, luciferase activity; read-out: IC50 (μM) pSTAT3
T1 construct: endogenous in cells; host or cells: LNCaP (human prostate cancer) stably carrying pSTAT3-TA-luc reporter plasmid
Description: Cancer cell lines used for evaluating the compounds of the Examples were purchased from ATCC (American Type Culture Collection) or KCLB (Korean Cell Line Bank), and cultured according to the vendor's recommendation. The human prostate cancer cell line stably expressing the STAT3 promoter (LNcaP stable cell line [plasmid STAT3-TA-luc])—which was prepared to evaluate the inhibitory effect of the compounds of the Examples against dimerization of STAT3—was cultured in RPMI1640 (Cat no. 11875, Gibco), 10% fetal bovine serum (Cat no. SH30071.03, Hyclone) and 150 μg/mL G418 solution (Cat no. 04 727 894 001, Roche).
The reporter gene assay of LNcap stable cell line was carried out by the use of RPMI 1640 medium containing 3% DCC-FBS (without G-418). The cell line was dispensed into two (2) white 96-well plates at 30,000 cells/well/50 μL. The cell line was incubated for 24 hours under the condition of 37° C. and 5% CO2, and then the Example compounds of 50 mM DMSO stock were diluted to various concentrations and treated to two (2) white 96-well plates containing cells. Then, IL-6 was treated to a final concentration of 10 ng/mL. After the treatment of Example compounds and IL-6, the cells were cultured for 48 hours under the condition of 37° C. and 5% CO2. After 48 hours, the 96-well plates were observed under a microscope to record the presence or absence of drug precipitation and specificities, and the 96-well plates were kept at room temperature for 30 minutes. Then, in the case of the first 96-well plate, the culture medium on the plate was removed to measure the luciferase activity, and treated with passive lysis buffer at 20 µL/well and shaken for 30 minutes. The luciferase activity was measured on microLUMA LB96P (BERTHOLD) or Centro XS LB 960 (BERTHOLD) instrument using Luciferase assay system (Cat No. E1501, Promega Corporation). In the case of the second 96-well plate, 20 μL of Glo-mix solution was added to measure cytotoxicity by the compounds of the Examples, and the plate was well shaken for 10 minutes and analyzed on microLUMA LB96P (BERTHOLD) instrument using Glo-vial protocol. As a negative control, a 96 well-plate in which culture medium was added but cells were not plated was used. As a positive control, a 96 well-plate in which cells were plated and 0.1% DMSO and culture medium containing stimulation were added was used.
The results of evaluating the inhibitory effects of the compounds of the Examples against dimerization of STAT3 and STAT1 via STAT3 and STAT1 reporter gene assay are represented in Table 1.

T1 sequence (P40763 whole entry): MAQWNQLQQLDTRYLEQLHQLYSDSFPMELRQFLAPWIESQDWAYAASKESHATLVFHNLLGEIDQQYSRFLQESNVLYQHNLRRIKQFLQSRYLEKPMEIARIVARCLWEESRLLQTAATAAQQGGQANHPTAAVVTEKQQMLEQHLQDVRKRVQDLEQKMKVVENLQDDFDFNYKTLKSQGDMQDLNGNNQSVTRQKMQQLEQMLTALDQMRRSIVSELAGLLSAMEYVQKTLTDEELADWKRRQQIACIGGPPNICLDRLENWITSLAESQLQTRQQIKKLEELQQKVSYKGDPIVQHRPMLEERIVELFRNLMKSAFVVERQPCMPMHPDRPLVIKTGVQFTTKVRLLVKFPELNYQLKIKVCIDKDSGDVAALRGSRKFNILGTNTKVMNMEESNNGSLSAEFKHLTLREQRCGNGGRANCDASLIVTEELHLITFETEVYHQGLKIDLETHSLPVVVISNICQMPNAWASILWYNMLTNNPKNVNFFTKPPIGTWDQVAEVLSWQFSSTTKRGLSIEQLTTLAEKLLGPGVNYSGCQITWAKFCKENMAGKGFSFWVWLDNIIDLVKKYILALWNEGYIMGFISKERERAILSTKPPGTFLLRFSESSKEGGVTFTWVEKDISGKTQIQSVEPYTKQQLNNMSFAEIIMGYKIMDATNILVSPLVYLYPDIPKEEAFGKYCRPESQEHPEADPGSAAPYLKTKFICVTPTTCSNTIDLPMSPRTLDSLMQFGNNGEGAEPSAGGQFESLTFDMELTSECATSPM

Compound	IC50 [1] [µM]	IC50 [2] [µM]
O=[N+]([O-])c1ccc(CCNc2cc(Cl)nc3ccc(Cl)cc23)cc1 [Example 32, 2,6-dichloro-N-(4-nitrophenethyl)quinolin-4-amine]	33.8	3.3
O=[N+]([O-])c1ccc(CCNc2cc(Cl)nc3ccc(Oc4ccccc4)cc23)cc1 [Example 33, 2-chloro-N-(4-nitrophenethyl)-6-phenoxyquinolin-4-amine]	> 50	6
O=C(c1ccccc1)c1ccc2nc(Cl)cc(NCCc3ccc([N+](=O)[O-])cc3)c2c1 [Example 34, (2-chloro-4-((4-nitrophenethyl)amino)quinolin-6-yl)(phenyl)methanone]	15.7	6.9
O=[N+]([O-])c1ccc(CCNc2cc(Cl)nc3ccc(O)cc23)cc1 [Example 35, 2-chloro-4-((4-nitrophenethyl)amino)quinolin-6-ol]	7.3	2.3
O=[N+]([O-])c1ccc(CCNc2ncnc3ccccc23)cc1 [Example 36, N-(4-nitrophenethyl)quinazolin-4-amine]	0.093	0.023
CCOC(=O)COc1ccc2nc(Cl)cc(NCCc3ccc([N+](=O)[O-])cc3)c2c1 [Example 37, ethyl 2-((2-chloro-4-((4-nitrophenethyl)amino)quinolin-6-yl)oxy)acetate]	10.6	20.3
CS(=O)(=O)Nc1ccc(CCNc2ncnc3ccccc23)cc1 [Example 38, N-(4-(2-(quinazolin-4-ylamino)ethyl)phenyl)methanesulfonamide]	0.18	0.17
NC(=O)COc1ccc2nc(Cl)cc(NCCc3ccc([N+](=O)[O-])cc3)c2c1 [Example 39, 2-((2-chloro-4-((4-nitrophenethyl)amino)quinolin-6-yl)oxy)acetamide]	> 50	> 50
O=C(O)c1ccc2nc(Cl)cc(NCCc3ccc([N+](=O)[O-])cc3)c2c1 [Example 40, 2-chloro-4-((4-nitrophenethyl)amino)quinolin-6-carboxylic acid]	> 50	> 50
NC(=O)c1ccc2nc(Cl)cc(NCCc3ccc([N+](=O)[O-])cc3)c2c1 [Example 41, 2-chloro-4-((4-nitrophenethyl)amino)quinolin-6-carboxamide]	> 50	9.8
O=C(c1ccc2nc(Cl)cc(NCCc3ccc([N+](=O)[O-])cc3)c2c1)N1CCOCC1 [Example 42, (2-chloro-4-((4-nitrophenethyl)amino)quinolin-6-yl)(morpholino)methanone]	> 50	> 50
O=C(O)COc1ccc2nc(Cl)cc(NCCc3ccc([N+](=O)[O-])cc3)c2c1 [Example 43, 2-((2-chloro-4-((4-nitrophenethyl)amino)quinolin-6-yl)oxy)acetic acid]	> 50	> 50
NNC(=O)c1ccc2nc(Cl)cc(NCCc3ccc([N+](=O)[O-])cc3)c2c1 [Example 44, 2-chloro-4-((4-nitrophenethyl)amino)quinolin-6-carbohydrazide]	> 50	> 50
CS(=O)(=O)Nc1ccc(CCNc2cc(Cl)nc3c(F)cccc23)cc1 [Example 45, N-(4-(2-((2-chloro-8-fluoroquinolin-4-yl)amino)ethyl)phenyl)methanesulfonamide]	13.1	13.1
CS(=O)(=O)Nc1ccc(CCNc2ccnc3c(F)cccc23)cc1 [Example 46, N-(4-(2-((8-fluoroquinolin-4-yl)amino)ethyl)phenyl)methanesulfonamide]	18.9	33.7
O=[N+]([O-])c1ccc(CCNc2nc(Cl)nc3[nH]cnc23)cc1 [Example 47, 2-chloro-N-(4-nitrophenethyl)-9H-purin-6-amine]	> 50	> 50
O=[N+]([O-])c1ccc(CCNc2nc(C(F)(F)F)nc3ccccc23)cc1 [Example 48, N-(4-nitrophenethyl)-2-(trifluoromethyl)quinazolin-4-amine]	14.2	7.3
O=[N+]([O-])c1ccc(CCNc2cc(C(F)(F)F)nc3ccccc23)cc1 [Example 49, N-(4-nitrophenethyl)-2-(trifluoromethyl)quinolin-4-amine]	14.1	5.6

Next, values leading:

IC50 [1] [µM]	IC50 [2] [µM]	Compound
23.1	13.9	O=[N+]([O-])c1ccc(CCNc2nc(F)nc3[nH]cnc23)cc1 [Example 50, 2-fluoro-N-(4-nitrophenethyl)-9H-purin-6-amine]
27.7	24.1	CNc1cc(NCCc2ccc([N+](=O)[O-])cc2)c2ccccc2n1 [Example 51, N^2-methyl-N^4-(4-nitrophenethyl)quinolin-2,4-diamine 2,2,2-trifluoroacetate]
6.6	3.1	CS(=O)(=O)Nc1ccc(CCNc2cc(C(F)(F)F)nc3ccccc23)cc1 [Example 52, N-(4-(2-((2-(trifluoromethyl)quinolin-4-yl)amino)ethyl)phenyl)methanesulfonamide]
15.7	3	CS(=O)(=O)Nc1ccc(CCNc2nc(C(F)(F)F)nc3ccccc23)cc1 [Example 53, N-(4-(2-((2-(trifluoromethyl)quinazolin-4-yl)amino)ethyl)phenyl)methanesulfonamide]
14.1	11	O=[N+]([O-])c1ccc(CCNc2ncnc3ccc(-c4ccc(Cl)cc4Cl)cc23)cc1 [Example 54, 6-(2,4-dichlorophenyl)-N-(4-nitrophenethyl)quinazolin-4-amine]
> 50	> 50	O=[N+]([O-])c1ccc(CCNc2cc(Cl)nc3ccc(-c4ccc(Cl)cc4Cl)cc23)cc1 [Example 55, 2-chloro-6-(2,4-dichlorophenyl)-N-(4-nitrophenethyl)quinolin-4-amine]
13.9	6.6	CS(=O)(=O)Nc1ccc(CCNc2ncnc3ccc(-c4ccc(Cl)cc4Cl)cc23)cc1 [Example 56, N-(4-(2-((6-(2,4-dichlorophenyl)quinazolin-4-yl)amino)ethyl)phenyl)methanesulfonamide]
8.6	17.9	CS(=O)(=O)Nc1ccc(CCNc2cc(Cl)nc3ccc(-c4ccc(Cl)cc4Cl)cc23)cc1 [Example 57, N-(4-(2-((2-chloro-6-(2,4-dichlorophenyl)quinolin-4-yl)amino)ethyl)phenyl)methanesulfonamide]
> 50	> 50	CS(=O)(=O)Nc1ccc(CNC(=O)c2cc(Cl)nc3ccccc23)cc1 [Example 58, 2-chloro-N-(4-(methylsulfonamido)benzyl)quinolin-4-carboxamide]
0.16	0.35	O=[N+]([O-])c1ccc(C(F)(F)CNc2ncnc3ccccc23)cc1 [Example 59, N-(2,2-difluoro-2-(4-nitrophenyl)ethyl)quinazolin-4-amine]
29.5	14	O=S(=O)(Nc1ccc(CCNc2ncnc3ccccc23)cc1)C(F)(F)F [Example 60, 1,1,1-trifluoro-N-(4-(2-(quinazolin-4-ylamino)ethyl)phenyl)methanesulfonamide]
0.19	0.053	O=[N+]([O-])c1ccc(CCNc2ncnc3ccc(F)cc23)cc1 [Example 61, 6-fluoro-N-(4-nitrophenethyl)quinazolin-4-amine]
23.5	12.1	O=[N+]([O-])c1ccc(CCNc2cncc3ccccc23)cc1 [Example 62, N-(4-nitrophenethyl)isoquinolin-4-amine]
